The target of assay [1] is T1, human muscarinic M1 receptor (Homo sapiens, UniProt P11229).
T1 sequence (P11229 1-460): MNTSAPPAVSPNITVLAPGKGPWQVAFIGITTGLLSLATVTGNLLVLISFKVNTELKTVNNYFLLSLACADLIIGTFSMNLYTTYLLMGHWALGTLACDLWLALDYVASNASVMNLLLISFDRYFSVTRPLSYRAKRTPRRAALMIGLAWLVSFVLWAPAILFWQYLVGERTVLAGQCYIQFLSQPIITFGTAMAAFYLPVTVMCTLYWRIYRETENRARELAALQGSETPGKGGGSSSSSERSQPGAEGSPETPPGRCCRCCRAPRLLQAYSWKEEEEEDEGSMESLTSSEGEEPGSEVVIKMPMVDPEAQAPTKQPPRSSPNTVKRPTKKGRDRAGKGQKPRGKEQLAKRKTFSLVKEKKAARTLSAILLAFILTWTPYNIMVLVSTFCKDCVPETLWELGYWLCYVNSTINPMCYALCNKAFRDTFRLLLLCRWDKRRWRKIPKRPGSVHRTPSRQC
Description: Alphascreen Surefire phospho-ERK1/2 functional assay, M1. In kind it is cell-based. As to conditions: for EC50: phospho-ERK1/2, * = variable results, read-out: pEC50 M1 (converted); for Emax: CHO, read-out: % Emax cf. ACh, M1, CHO cells stably expressing human M1. (In general: Alpha assays give light when donor and acceptor beads are brought close together.)

In assay [2] the target is T2, human muscarinic M2 receptor (Homo sapiens, UniProt P08172).
T2 sequence (P08172 1-466): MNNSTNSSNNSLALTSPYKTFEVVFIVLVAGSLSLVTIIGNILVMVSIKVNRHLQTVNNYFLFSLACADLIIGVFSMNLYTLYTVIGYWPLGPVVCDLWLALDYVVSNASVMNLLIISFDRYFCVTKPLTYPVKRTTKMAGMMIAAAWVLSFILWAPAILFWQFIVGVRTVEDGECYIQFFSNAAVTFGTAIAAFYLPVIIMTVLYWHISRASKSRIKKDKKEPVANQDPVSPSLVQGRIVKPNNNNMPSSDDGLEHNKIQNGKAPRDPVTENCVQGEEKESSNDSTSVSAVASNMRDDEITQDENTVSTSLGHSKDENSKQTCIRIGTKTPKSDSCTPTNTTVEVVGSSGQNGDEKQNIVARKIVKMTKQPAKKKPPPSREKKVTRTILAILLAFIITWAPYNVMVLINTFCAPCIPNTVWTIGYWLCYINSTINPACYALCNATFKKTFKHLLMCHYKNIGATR
Description: Alphascreen Surefire phospho-ERK1/2 functional assay, M2. As to conditions: for Emax: CHO, read-out: % Emax cf. ACh, M2, CHO cells stably expressing human M2.

Assay [3] addresses T3, human muscarinic M4 receptor (Homo sapiens, UniProt P08173).
T3 construct: expressed in transfected cells
T3 sequence (P08173 1-479): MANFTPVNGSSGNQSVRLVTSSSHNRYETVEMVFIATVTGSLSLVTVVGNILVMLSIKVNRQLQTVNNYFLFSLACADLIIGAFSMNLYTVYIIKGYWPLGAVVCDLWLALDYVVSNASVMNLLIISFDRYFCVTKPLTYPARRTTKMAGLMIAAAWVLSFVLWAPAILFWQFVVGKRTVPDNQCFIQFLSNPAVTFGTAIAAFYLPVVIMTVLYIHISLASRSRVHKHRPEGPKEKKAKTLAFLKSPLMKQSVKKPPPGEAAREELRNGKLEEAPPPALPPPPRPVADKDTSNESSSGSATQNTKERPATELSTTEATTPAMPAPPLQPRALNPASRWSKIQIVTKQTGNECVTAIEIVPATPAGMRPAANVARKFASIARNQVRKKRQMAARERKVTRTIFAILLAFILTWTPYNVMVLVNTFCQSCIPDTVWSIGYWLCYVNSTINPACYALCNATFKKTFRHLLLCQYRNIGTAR
Description: Alphascreen Surefire phospho-ERK1/2 functional assay, M4. The class given is cell-based. Particulars: for EC50: phospho-ERK1/2, * = variable results, read-out: pEC50 M4 (converted); for Emax: CHO, read-out: % Emax cf. ACh, M4, CHO cells stably expressing human M4.

For assay [4], the target named is human muscarinic M3 receptor (Homo sapiens, UniProt P20309). Description: Alphascreen Surefire phospho-ERK1/2 functional assay, M3. Particulars: for EC50: pEC50 M3, CHO cells stably expressing human M3, phospho-ERK1/2, * = variable results; for Emax: CHO, read-out: % Emax cf. ACh, M3, CHO cells stably expressing human M3.
The mark [5] stands for this setting: CHO cells stably expressing human M1.
The mark [6] stands for this setting: CHO cells stably expressing human M4.

Structures are written as SMILES. Bounds are passed on as bounds.

Chain of human muscarinic M3 receptor (P20309 whole entry): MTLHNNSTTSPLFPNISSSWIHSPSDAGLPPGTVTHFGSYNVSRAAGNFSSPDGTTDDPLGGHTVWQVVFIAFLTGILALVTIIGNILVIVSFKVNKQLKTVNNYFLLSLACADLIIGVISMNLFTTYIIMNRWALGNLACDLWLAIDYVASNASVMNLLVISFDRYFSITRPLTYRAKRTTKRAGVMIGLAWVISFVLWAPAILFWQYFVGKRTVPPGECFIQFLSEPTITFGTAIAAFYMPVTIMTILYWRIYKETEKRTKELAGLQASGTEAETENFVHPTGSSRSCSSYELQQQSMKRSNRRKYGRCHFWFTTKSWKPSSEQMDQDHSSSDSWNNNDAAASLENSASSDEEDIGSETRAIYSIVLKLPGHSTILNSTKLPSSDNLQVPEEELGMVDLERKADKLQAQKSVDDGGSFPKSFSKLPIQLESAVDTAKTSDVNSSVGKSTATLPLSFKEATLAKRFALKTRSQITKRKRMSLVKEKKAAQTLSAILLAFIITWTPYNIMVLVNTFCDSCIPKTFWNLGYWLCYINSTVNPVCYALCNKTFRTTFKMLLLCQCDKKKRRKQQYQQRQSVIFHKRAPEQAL

As to `CCOC(=O)N1CCC2(CC(N3CCC(N4CC(F)(F)C[C@@H]4C(C)O)CC3)C2)C1` (single isomer, unassigned) [2-109 Isomer 4], the figures for the EC50 in assay [1] (setting [5]), in assay [3] (setting [6]) and in assay [4] were 316 nM, 20 nM and greater than 20000 nM, respectively. Also, in assay [1] (CHO cells stably expressing human M1, relative to ACh), the “% Emax cf. ACh, M1” value is 42%. Further, in assay [2] (CHO cells stably expressing human M2, phospho-ERK1/2, * = variable results), the “pEC50 M2” value is on record as less than 4.7. Besides, the “% Emax cf. ACh, M2” value in assay [2] (CHO cells stably expressing human M2, relative to ACh) came out at 15%. The “% Emax cf. ACh, M4” value in assay [3] (CHO cells stably expressing human M4, relative to ACh) was found to be 82%. In assay [4] (CHO cells stably expressing human M3, relative to ACh), the “% Emax cf. ACh, M3” value is given as 9%.
By Emax is commonly meant the greatest response seen or fitted, relative to the assay's reference. Regarding `CCOC(=O)N1CCC2(CC(N3CCC([C@@H]4CCCN4c4ccccc4)CC3)C2)C1` (single isomer, unassigned) [2-77 Isomer 2], the EC50 is 251 nM in assay [1] (setting [5]), greater than 20000 nM in assay [2], 6.31 nM in assay [3] (setting [6]) and greater than 20000 nM in assay [4]. Besides, the Emax stood at 51% in assay [1] (relative to ACh), 14% in assay [2] (relative to ACh), 105% in assay [3] (relative to ACh) and 47% in assay [4] (relative to ACh).
As to `CCOC(=O)N1CCC2(CC(N3CCC([C@@H]4CCCN4C(=O)NC4COC4)CC3)C2)C1` (single isomer, unassigned) [2-56 Isomer 2], the EC50 was 631 nM in assay [1] (setting [5]), greater than 20000 nM in assay [2], 5.01 nM in assay [3] (setting [6]) and greater than 20000 nM in assay [4]. Also, the Emax in assay [1] (relative to ACh) is 96%; in assay [2] (relative to ACh), 8%; in assay [3] (relative to ACh) it was 134%; in assay [4] (relative to ACh), 0%.
On to `CCOC(=O)N1CCC2(CC(N3CCC([C@@H]4CCCN4C(=O)OCc4ccccn4)CC3)C2)C1` (single isomer, unassigned) [2-64 Isomer 2], for which the EC50 in assay [1] (setting [5]) is greater than 20000 nM; in assay [2], greater than 20000 nM; in assay [3] (setting [6]) it was 3.16 nM; in assay [4], greater than 20000 nM. Moreover, the maximum response (Emax) amounted to 12% in assay [1] (relative to ACh), 6% in assay [2] (relative to ACh), 41% in assay [3] (relative to ACh) and 8% in assay [4] (relative to ACh).
With `CCOC(=O)N1CCC2(CC(N3CCC(c4ncc(Cl)n4C)CC3)C2)C1` (single isomer, unassigned) [1-14 Isomer 2, ethyl 2-[4-(5-chloro-1-methyl-1H-imidazol-2-yl)piperidin-1-yl]-6-azaspiro[3.4]octane-6-carboxylate], the EC50 was 631 nM in assay [1] (setting [5]), greater than 20000 nM in assay [2], 50.1 nM in assay [3] (setting [6]) and greater than 20000 nM in assay [4]. The Emax in assay [1] (relative to ACh) was 66%; in assay [2] (relative to ACh), 27%; in assay [3] (relative to ACh), 99%; in assay [4] (relative to ACh) it was 5%.
For the molecule `CCOC(=O)N1CCC2(CC(N3CCC(c4cccc(OC)n4)CC3)C2)C1` (single isomer, unassigned) [3-13 Isomer 2, ethyl 2-[4-(6-methoxypyridin-2-yl)piperidin-1-yl]-6-azaspiro[3.4]octane-6-carboxylate], the EC50 was 12.6 nM in assay [1] (setting [5]), greater than 20000 nM in assay [2], 12.6 nM in assay [3] (setting [6]) and greater than 20000 nM in assay [4]. For the same molecule, the maximal response (Emax) in assay [1] (relative to ACh) worked out at 97%; in assay [2] (relative to ACh), 2%; in assay [3] (relative to ACh) it was 82%; in assay [4] (relative to ACh) it was 1%.
For the molecule `CCOC(=O)N1CCC2(CC(N3CCC(C4CCCN4C(=O)C(F)(F)F)CC3)C2)C1` (single isomer, unassigned) [2-4 Isomer 2, ethyl 2-{4-[1-(trifluoroacetyl)pyrrolidin-2-yl]piperidin-1-yl}-6-azaspiro[3.4]octane-6-carboxylate], the EC50 in assay [1] (setting [5]) is 316 nM; in assay [2], greater than 20000 nM; in assay [3] (setting [6]) it was 50.1 nM; in assay [4], greater than 20000 nM. For the same molecule, the Emax in assay [1] (relative to ACh) amounted to 102%; in assay [2] (relative to ACh) it was 2%; in assay [3] (relative to ACh), 110%; in assay [4] (relative to ACh) it was 3%.
Consider `CCOC(=O)N1CCC2(CC(N3CCC(c4nnc[nH]4)CC3)C2)C1` (single isomer, unassigned) [1-26 Isomer 2, ethyl 2-[4-(4H-1,2,4-triazol-3-yl)piperidin-1-yl]-6-azaspiro[3.4]octane-6-carboxylate], for which the EC50 was 2510 nM in assay [1] (setting [5]), greater than 20000 nM in assay [2], 200 nM in assay [3] (setting [6]) and 794 nM in assay [4]. Moreover, the maximal effect (Emax) in assay [1] (relative to ACh) came to 46%; in assay [2] (relative to ACh), 99%; in assay [3] (relative to ACh), 76%; in assay [4] (relative to ACh), 53%.
With `COC(=O)N1CCC2(CC(N3CCC([C@@H]4CCCN4C(=O)NCC(F)(F)F)CC3)C2)C1` (single isomer, unassigned) [2-40 Isomer 2], the EC50 in assay [1] (setting [5]) is 794 nM; in assay [2], greater than 20000 nM; in assay [3] (setting [6]), 31.6 nM; in assay [4], greater than 20000 nM. The Emax came out at 78% in assay [1] (relative to ACh), 2% in assay [2] (relative to ACh), 90% in assay [3] (relative to ACh) and 1% in assay [4] (relative to ACh).
As for `CCOC(=O)N1CCC2(CC(N3CCC(N4CCC[C@@H]4C(=O)OC)CC3)C2)C1` (single isomer, unassigned) [2-84 Isomer 2], the EC50 is 251 nM in assay [1] (setting [5]), greater than 20000 nM in assay [2], 20 nM in assay [3] (setting [6]) and greater than 20000 nM in assay [4]. Besides, the Emax was determined as 36% in assay [1] (relative to ACh) and 82% in assay [3] (relative to ACh).
Regarding `CCOC(=O)N1CCC2(CC(N3CCC(N4CCCCCC4C(=O)OC)CC3)C2)C1` (single isomer, unassigned) [5-2 Isomer 2, ethyl 2-{4-[2-(methoxycarbonyl)azepan-1-yl]piperidin-1-yl}-6-azaspiro[3.4]octane-6-carboxylate], the EC50 in assay [1] (setting [5]) was 1000 nM; in assay [2], greater than 20000 nM; in assay [3] (setting [6]), 50.1 nM; in assay [4], greater than 20000 nM. The maximal response (Emax) in assay [1] (relative to ACh) worked out at 58%; in assay [2] (relative to ACh), 5%; in assay [3] (relative to ACh), 96%; in assay [4] (relative to ACh) it was 4%.
With `CCOC(=O)N1CCC2(CC(N3CCC([C@@H]4CCCN4C(=O)NC4CC(F)(F)C4)CC3)C2)C1` (single isomer, unassigned) [2-38 Isomer 2], the EC50 is 158 nM in assay [1] (setting [5]), greater than 20000 nM in assay [2], 5.01 nM in assay [3] (setting [6]) and greater than 20000 nM in assay [4]. For the same molecule, the Emax in assay [1] (relative to ACh) came to 110%; in assay [2] (relative to ACh) it was 1%; in assay [3] (relative to ACh), 115%; in assay [4] (relative to ACh), 2%.
As for `CCOC(=O)N1CCC2(CC(N3CCC([C@@H]4CCCN4C(=S)NC)CC3)C2)C1` (single isomer, unassigned) [2-75 Isomer 2], the EC50 in assay [1] (setting [5]) was 316 nM; in assay [2], greater than 20000 nM; in assay [3] (setting [6]) it was 2.51 nM; in assay [4] it was greater than 20000 nM. Besides, the maximal response (Emax) worked out at 80% in assay [1] (relative to ACh), 6% in assay [2] (relative to ACh), 109% in assay [3] (relative to ACh) and 4% in assay [4] (relative to ACh).
On to `CCOC(=O)N1CCC2(CC(N3CCC(N4CCNC4=O)CC3)C2)C1` (single isomer, unassigned) [2-124 Isomer 2, ethyl 2-[4-(2-oxoimidazolidin-1-yl)piperidin-1-yl]-6-azaspiro[3.4]octane-6-carboxylate], for which the EC50 in assay [1] (setting [5]) was 631 nM; in assay [2], greater than 20000 nM; in assay [3] (setting [6]), 79.4 nM; in assay [4] it was greater than 20000 nM. Also, the Emax in assay [1] (relative to ACh) was determined as 45%; in assay [2] (relative to ACh) it was 2%; in assay [3] (relative to ACh) it was 77%; in assay [4] (relative to ACh), 0%.

The values above are taken from patent publication US9926297B2, “Bicyclic AZA compounds as muscarinic M1 receptor and/or M4 receptor agonists” (Heptares Therapeutics Limited, priority 2014, dated 2018).
